One assay relates to serotonin. Kind of assay: Antagonistic activity on the effects of serotonin in the gastric lesion test (lesions induced by compound 48/80). The assay is classed as in vivo, rat (male, Wistar inbred strain). The source says: The compounds of formula (I) and the pharmaceutically acceptable acid addition salts thereof are also potent serotonin-antagonists. The potency of the subject compounds as serotonin-antagonists is clearly evidenced by the results obtained in the following tests wherein the antagonistic activity of the subject compounds on the effect of serotonin is examined.
Antagonistic activity on the effects of serotonin in the gastric lesion test
Comound 48/80 (a mixture of oligomers obtained by condensation of 4-methoxy-N-methylbenzeneethanamine and formaldehyde) is a potent releaser of vasoactive amines from endogenous stores such as, for example, histamine and serotonin. […] The shock, followed by dead, can be avoided if the rats are pretreated with a classical H 1 antagonist.
Male rats of a Wistar inbred strain, weighing 220-250 g, were starved overnight, water being available ad libitum. The test compounds were administered orally as a solution or as a suspension in aqueous medium. A control rat and a "blank" rat received the test compound. One hour later 5-[4-(diphenylmethyl)-1-piperazinylmethyl]-1-methyl-1H-benzimidazole-2-methanol was administered subcutaneously to all rats at the dose of 2.5 mg/kg.
Four hours after the intravenous injection of compound 48/80, the rats were decapitated and the stomachs were removed. Subsequently the stomachs ere inspected for distension and contents (blood, fluid, food) and thoroughly rinsed. The macroscopic lesions were scored from 0 to +++, 0 corresponding to complete absence of visible lesions and the highest score corresponding to reddish rough patches covering more than half the glandular area.

For assay [1], the system named is compound 48/80-induced lethality. Kind of assay: Protection of rats from compound 48/80-induced lethality. The assay is classed as in vivo, rat (male, inbred Wistar strain). Particulars: Rattus norvegicus, 4 h, read-out: Compound 48/80 lethality test in rats-ED50. As for the experimental part: Protection of rats from compound 48/80-induced lethality
The protection from compound 48/80-induced lethal circulatory collapse appears to be a simple way of evaluating quantitatively the antihistaminic activity of test compounds. Male rats of an inbred Wistar strain, weighing 240-260 g were used in the experiment. After overnight starvation the rats were transferred to conditioned laboratories (temp.=21±1° C., relative humidity=65±5%).
The rats were treated subcutaneously or orally with a test compound or with the solvent (NaCl solution, 0.9%). […] Survival after 4 hours is therefore considered to be a safe criterion of a protective effect of drug administration.
The ED50 -values of the compounds of formula (I) are listed in the first column of table 1. Said ED50 -values are the values in mg/kg body weight at which the tested compounds protect 50% of the tested animals against compound 48/80-induced lethality.

Setting [2] is: Rattus norvegicus, po, 4 h; read-out: gastric lesion test ED50 (distension of the stomach and lesions in the glandular area completely absent in 50% of rats).
The mark [3] stands for this setting: Rattus norvegicus, po, 4 h, read-out: gastric lesion test ED50 (distension of the stomach and lesions in the glandular area completely absent in 50% of rats).

Read-outs that look alike come from different tables or passages of the source.

Turning to `Cc1nc2scc(C)n2c(=O)c1CCN1CCC(Nc2nc3ccccc3n2Cc2ccc(F)cc2)CC1` [Compound 1, 6-[2-[4-[[1-[(4-fluorophenyl)methyl]-1H-benzimidazol-2-yl]amino]-1-piperidinyl]ethyl]-3,7-dimethyl-5H-thiazolo[3,2-a]pyrimidin-5-one], the ED50 in the assay on serotonin (setting [2]) worked out at 0.63 mg/kg; in assay [1], 0.31 mg/kg.

For `Cc1nc2ccccn2c(=O)c1CCN1CCC(Nc2nc3ccccc3n2Cc2ccc(F)cc2)CC1` [Compound 4], the figures for the ED50 (in the assay with serotonin (setting [3]); in assay [1]) were 0.31 mg/kg and 0.16 mg/kg, respectively.

For the compound `Cc1nc2ccccn2c(=O)c1CCN1CCC(Nc2nc3ccccc3n2Cc2ccco2)CC1` [Compound 5], the ED50 with serotonin (setting [2]) was 0.04 mg/kg; in assay [1], 0.16 mg/kg.

In the case of `Cc1nc2ccccn2c(=O)c1CCN1CCC(Nc2nc3cccnc3n2Cc2ccco2)CC1` [Compound 6], the values for the ED50 (with serotonin (setting [2]); in assay [1]) were 0.63 mg/kg and 0.08 mg/kg, respectively.

Turning to `Cc1nc2scc(C)n2c(=O)c1CCN1CCC(Nc2nc3cccnc3n2Cc2ccc(F)cc2)CC1` [Compound 7], the figures for the ED50 (with serotonin (setting [2]); in assay [1]) were 0.31 mg/kg and 0.04 mg/kg, respectively.

Take `Cn1cnc2c1c(=O)n(CCN1CCC(Nc3nc4ccccc4n3Cc3ccc(F)cc3)CC1)c(=O)n2C` [Compound 8]: the ED50 is 0.63 mg/kg with serotonin (setting [3]) and 0.16 mg/kg in assay [1].

For the compound `Cc1nc2scc(C)n2c(=O)c1CCN1CCC(Nc2nc3ccccc3n2Cc2ccco2)CC1` [Compound 9], the ED50 with serotonin (setting [2]) was determined as 0.16 mg/kg; in assay [1] it was 0.08 mg/kg.

In the case of `Cc1nc2scc(C)n2c(=O)c1CCN1CCC(Nc2nc3cccnc3n2Cc2ccco2)CC1` [Compound 10], the results for the ED50 (in the assay on serotonin (setting [2]); in assay [1]) were 0.16 mg/kg and 0.08 mg/kg, respectively.

As for `Cn1cnc2c1c(=O)n(CCN1CCC(Nc3nc4ccccc4n3Cc3ccco3)CC1)c(=O)n2C` [Compound 11], the ED50 in the assay with serotonin (setting [2]) was determined as 0.04 mg/kg; in assay [1] it was 0.08 mg/kg.

Consider `Cn1cnc2c1c(=O)n(CCN1CCC(Nc3nc4cccnc4n3Cc3ccc(F)cc3)CC1)c(=O)n2C` [Compound 12], for which the ED50 turned out to be 0.31 mg/kg in the assay with serotonin (setting [3]) and 0.16 mg/kg in assay [1].

Turning to `Cc1nc2n(c(=O)c1CCN1CCC(Nc3nc4ccccc4n3Cc3ccco3)CC1)CCCS2` [Compound 13], the ED50 is 0.08 mg/kg in the assay with serotonin (setting [2]) and 0.02 mg/kg in assay [1].

For the compound `Cc1nc2n(c(=O)c1CCN1CCC(Nc3nc4cccnc4n3Cc3ccco3)CC1)CCCS2` [Compound 14], the ED50 in assay [1] was 0.02 mg/kg.

As to `Cc1nc2n(c(=O)c1CCN1CCC(Nc3nc4ccccc4n3Cc3ccc(F)cc3)CC1)CCCS2` [Compound 15], the results for the ED50 (in the assay on serotonin (setting [2]); in assay [1]) were 0.31 mg/kg and 0.16 mg/kg, respectively.

Take `Cc1nc2n(c(=O)c1CCN1CCC(Nc3nc4cccnc4n3Cc3ccc(F)cc3)CC1)CCCS2` [Compound 16]: in assay [1], the ED50 is 0.16 mg/kg.

Regarding `Cc1nc2ccccn2c(=O)c1CCN1CCC(Nc2nc3cccnc3n2Cc2ccc(F)cc2)CC1.Cl.Cl` [Compound 22, 3-[2-[4-[[3-[(4-fluorophenyl)methyl]-3H-imidazo[4,5-b]-pyridin-2-yl]amino]-1-piperidinyl]ethyl]-2-methyl-4H-pyrido[1,2-a]pyrimidin-4-one dihydrochloride], in assay [1], the ED50 is 0.16 mg/kg.

For `O=c1[nH]c2ccccc2c(=O)n1CCN1CCC(Nc2nc3cccnc3n2Cc2ccc(F)cc2)CC1` [Compound 25], in assay [1], the ED50 is 0.16 mg/kg.

In the case of `O=c1[nH]c2ccccc2c(=O)n1CCN1CCC(Nc2nc3cccnc3n2Cc2ccco2)CC1` [Compound 26], the ED50 in assay [1] worked out at 0.08 mg/kg.

Take `Cc1nc2sccn2c(=O)c1CCN1CCC(Nc2nc3ccccc3n2Cc2ccc(F)cc2)CC1` [Compound 27]: the ED50 in assay [1] was found to be 0.08 mg/kg.

Turning to `O=c1[nH]c2ccccc2c(=O)n1CCCN1CCC(Nc2nc3ccccc3n2Cc2ccco2)CC1` [Compound 30], the ED50 in assay [1] turned out to be 0.16 mg/kg.

Regarding `O=c1[nH]c2ccccc2c(=O)n1CCCN1CCC(Nc2nc3cccnc3n2Cc2ccco2)CC1` [Compound 32], the ED50 in assay [1] amounted to 0.04 mg/kg.

Turning to `Cn1c(=O)n(CCN2CCC(Nc3nc4cccnc4n3Cc3ccco3)CC2)c(=O)c2ccccc21` [Compound 35], the ED50 in assay [1] was 0.02 mg/kg.

As to `Cn1c(=O)n(CCN2CCC(Nc3nc4cccnc4n3Cc3ccc(F)cc3)CC2)c(=O)c2ccccc21` [Compound 36], in assay [1], the ED50 amounted to 0.16 mg/kg.

As to `O=c1[nH]c2ccccc2c(=O)n1CCCN1CCC(Nc2nc3cccnc3n2Cc2ccc(F)cc2)CC1` [Compound 37], the ED50 in assay [1] is 0.16 mg/kg.

Turning to `Cn1c(=O)c2c(ncn2CCN2CCC(Nc3nc4cccnc4n3Cc3ccco3)CC2)n(C)c1=O` [Compound 42], the ED50 in assay [1] turned out to be 0.16 mg/kg.

Consider `Cn1c(=O)c2c(ncn2CCN2CCC(Nc3nc4cccnc4n3Cc3ccc(F)cc3)CC2)n(C)c1=O` [Compound 43], for which, in assay [1], the ED50 was 0.16 mg/kg.

On to `Cc1nc2n(c(=O)c1CCN1CCC(Nc3nc4ccccc4n3Cc3ccco3)CC1)CCCC2` [Compound 44], for which, in assay [1], the ED50 came to 0.16 mg/kg.

For `Cc1nc2n(c(=O)c1CCN1CCC(Nc3nc4ccccc4n3Cc3ccc(F)cc3)CC1)CCCC2` [Compound 45], the ED50 in assay [1] is 0.08 mg/kg.

As to `Cc1nc2n(c(=O)c1CCN1CCC(Nc3nc4cccnc4n3Cc3ccco3)CC1)CCS2` [Compound 48], in assay [1], the ED50 amounted to 0.08 mg/kg.

Consider `Cc1nc2n(c(=O)c1CCN1CCC(Nc3nc4cccnc4n3Cc3ccco3)CC1)C(C)CCC2` (centres unmarked) [Compound 54], for which the ED50 in assay [1] amounted to 0.31 mg/kg.

Turning to `Cc1nc2n(c(=O)c1CCN1CCC(Nc3nc4ccccc4n3Cc3ccccn3)CC1)CCCC2` [Compound 57], the ED50 in assay [1] turned out to be 0.16 mg/kg.

As for `Cc1nc2ccccn2c(=O)c1CCN1CCC(Nc2nc3ccccc3n2Cc2cnccn2)CC1` [Compound 68, 2-methyl-3-[2-[4-[[1-(2-pyrazinylmethyl)-1H-benzimidazol-2-yl]amino]-1-piperidinyl]ethyl]-4H-pyrido[1,2-a]pyrimidin-4-one], in assay [1], the ED50 was 0.08 mg/kg.

On to `Cc1nc2n(c(=O)c1CCN1CCC(Nc3nc4ccccc4n3Cc3ccc(Cl)cc3)CC1)CCCC2` [Compound 69], for which the ED50 in assay [1] was found to be 0.16 mg/kg.

For `Cc1nc2cccc(C)n2c(=O)c1CCN1CCC(Nc2nc3cccnc3n2Cc2ccco2)CC1` [Compound 75], the ED50 in assay [1] is 0.01 mg/kg.

On to `Cc1nc2ccc(Br)cn2c(=O)c1CCN1CCC(Nc2nc3cccnc3n2Cc2ccco2)CC1` [Compound 76], for which, in assay [1], the ED50 is 0.08 mg/kg.

For the compound `Cc1nc2ccccn2c(=O)c1CCN1CCC(Nc2nc3ccncc3n2Cc2ccc(F)cc2)CC1` [Compound 79], in assay [1], the ED50 came out at 0.16 mg/kg.

`Cc1nc2c(NCCN3CCC(Nc4nc5ccccc5n4Cc4ccc(F)cc4)CC3)ncnc2n1C` [Compound 96]: the ED50 in assay [1] is 0.16 mg/kg.

As to `Cn1cnc2c(NCCN3CCC(Nc4nc5ccccc5n4Cc4ccccc4)CC3)ncnc21` [Compound 100], in assay [1], the ED50 was found to be 0.16 mg/kg.

As for `Cn1cnc2c(NCCN3CCC(Nc4nc5cc(O)ccc5n4Cc4ccc(F)cc4)CC3)ncnc21` [Compound 102], the ED50 in assay [1] came out at 0.08 mg/kg.

On to `Fc1ccc(Cn2c(NC3CCN(CCOc4nc5cccnc5s4)CC3)nc3ccccc32)cc1` [Compound 107, 1-[(4-fluorophenyl)methyl]-N-[1-[2-[(thiazolo[5,4-b]pyridin-2-yl)oxy]ethyl]-4-piperidinyl]-1H-benzimidazol-2-amine], for which the ED50 in assay [1] was 0.16 mg/kg.

As for `c1ccc(Cn2c(NC3CCN(CCNc4nc5cnccc5[nH]4)CC3)nc3cccnc32)nc1` [Compound 113], the ED50 in assay [1] turned out to be 0.04 mg/kg.

Consider `O=c1[nH]c2ccccc2c(=O)n1CCCCN1CCC(Nc2nc3ccccc3n2Cc2ccco2)CC1` [Compound 128, 3-[4-[4-[[1-(2-furanylmethyl)-1H-benzimidazol-2-yl]amino]-1-piperidinyl]-butyl]-2,4(1H,3H)-quinazolinedione], for which, in assay [1], the ED50 was found to be 0.08 mg/kg.

Consider `O=c1c2ccccc2[nH]c(=S)n1CCN1CCC(Nc2nc3ccccc3n2Cc2ccco2)CC1` [Compound 132, 3-[2-[4-[[1-(2-furanylmethyl)-1H-benzimidazol-2-yl]amino]-1-piperidinyl]ethyl]-2,3-dihydro-2-thioxo-4(1H)-quinazolinone], for which the ED50 in assay [1] turned out to be 0.16 mg/kg.

With `O=c1[nH]c2c(Cl)ncnc2n1CCN1CCC(Nc2nc3ccccc3n2Cc2ccc(F)cc2)CC1` [Compound 144, 6-chloro-9-[2-[4-[[1-[(4-fluorophenyl)methyl]-1H-benzimidazol-2-yl]amino]-1-piperidinyl]ethyl]-7,9-dihydro-8H-purin-8-one], in assay [1], the ED50 came out at 0.08 mg/kg.

Regarding `Fc1ccc(Cn2c(NC3CCN(CCc4cn5cccnc5n4)CC3)nc3ccccc32)cc1` [Compound 151, 1-[(4-fluorophenyl)methyl]-N-[1-[2-(imidazo[3,2-a]pyrimidin-2-yl)ethyl]-4-piperidinyl]-1H-benzimidazol-2-amine], in assay [1], the ED50 came to 0.08 mg/kg.

The values above are taken from patent US4695569A, “Bicyclic heterocyclyl containing N-(bicyclic heterocyclyl)-4-piperidinamines” (Janssen Pharmaceutica N.V., priority 1987, dated 1987).
